Experimental data from patent publication US7816390B2, “N-substituted tricyclic 3-aminopyrazoles as anti-mitotic tubulin polymerization inhibitors” (Janssen Pharmaceutica NV, priority 2008, dated 2010).
Where “and” joins values, the source holds several entries; their conditions need not be identical. Identical values can stand only once. Like-named read-outs stand apart in the source and are kept apart here. Each block holds one compound with its values, some of them ahead of it.

Assays:
[1] = test system: human tumor cell lines (AsPC-1, H460, PC3, T45D, A375, LoVo); assay: Tumor cell proliferation assay (14C-thymidine incorporation); assay type: cell-based
Experimental: (§1) The compound N-(3-ethoxyphenyl)-1,4-dihydro-6-ethoxy-7-(3-hydroxypropoxy)-1-methylindeno[1,2-c]pyrazole-3-amine was evaluated for direct effects on the growth of several human tumor cell lines derived from human cancers of varying origin (HeLa, cervical, H460 lung, LoVo colon, LnCAP and PC3 prostate lines, T47D breast, A375 melanoma, AsPC1 pancreatic and U87MG glioblastoma) and on the proliferation of normal human umbilical vein endothelial cells (HUVEC). Colchicine, nocodazole, doxorubicin and paclitaxel were evaluated as comparators.
(§2) Methods: Tumor cell anti-proliferative activity was assessed using standard in vitro cell proliferation assays in which the IC50 for inhibition of cell proliferation by a compound was measured using ^14C-thymidine incorporation into cellular DNA. Briefly, cells were plated into 96-well microplates and allowed to adhere overnight. Compound was added the next day and cells were incubated for an additional 24 hours. [^14C]-thymidine was allowed to incorporate into cellular DNA for 24 hours after which the plate was washed and counted in a scintillation counter.

bovine tubulin = assay: In vitro tubulin polymerization assay (CytoDYNAMIX Screen 03); assay type: biochemical; conditions: for effect on tubulin polymerization curve (Vmax): 10 μM; for IC50: 3 mg/mL bovine tubulin, absorbance at 340 nm, relative to Vmax of DMSO controls, read-out: IC50 for inhibition of tubulin polymerization
Experimental: Compounds were assayed in vitro for effects on tubulin polymerization using a commercially available assay kit from Cytoskeleton (CytoDYNAMIX Screen 03).
Methods: Briefly, this assay is based on the observation that light scattered by microtubules is proportional to the concentration of microtubule polymer. The standard polymerization reaction contains 100 μL volume of tubulin solution consisting of 3 mg/mL bovine tubulin in 80 mM PIPES pH 6.9, 0.5 mM EGTA, 2 mM MgCl2, 1 mM GTP and 10% glycerol. The tubulin solution (100 μL/well) is added rapidly to wells of a 96-well plate containing duplicate aliquots (10 μL) of experimental compounds in DMSO to achieve a final well concentration of 1.0 and 10 μM in a preliminary screening assay. Control wells contain the same final concentration of DMSO (<0.5%). Following initiation of the polymerization reaction by incubation at 37° C., absorbance at 340 nm is measured every minute for 60 minutes using a SpectraMax plate reader. […] Inhibition of tubulin polymerization by experimental compounds is calculated relative to the Vmax of the DMSO controls. A more detailed description of assay conditions and assay optimization can be found in the Assay Kit Instructions. The resulting polymerization curve (OD vs. Time in sec) is represented by three phases of microtubule polymerization, including nucleation (Phase I), microtubule growth (Phase II) and finally, steady-state equilibrium (Phase III). Compounds that interact (bind) with tubulin alter one or more of these characteristic phases of tubulin polymerization.

[2] = test system: tubulin (colchicine binding site); assay: Radiolabeled [3H]-colchicine competition SPA assay
[3] = test system: tubulin (colchicine binding site); assay: ThermoFluor binding assay
[4] = test system: human umbilical vein endothelial cells (HUVEC); assay: HUVEC proliferation assay (14C-thymidine incorporation); assay type: cell-based
Experimental: as §1, §2

Compound: CC(=O)O[C@H]1C(=O)[C@@]2(C)[C@H]([C@H](OC(=O)c3ccccc3)[C@]3(O)C[C@H](OC(=O)[C@H](O)[C@@H](NC(=O)c4ccccc4)c4ccccc4)C(C)=C1C3(C)C)[C@]1(OC(C)=O)CO[C@@H]1C[C@@H]2O [paclitaxel]
anti-proliferative potency ([1]; H460 lung, T47D breast, PC3 prostate and LoVo colon lines): sub-nM potency | effect on tubulin (bovine tubulin): stabilization of tubulin | effect on tubulin polymerization curve (Vmax) (bovine tubulin): dramatic enhancement of the Vmax of the growth phase

competition with [3H]-colchicine binding [2]: no significant competition
Compound: CC[C@]1(O)C[C@@H]2CN(CCc3c([nH]c4ccccc34)[C@@](C(=O)OC)(c3cc4c(cc3OC)N(C)[C@H]3[C@@](O)(C(=O)OC)[C@H](OC(C)=O)[C@]5(CC)C=CCN6CC[C@]43[C@@H]65)C2)C1 [vinblastine, reference compound]

IC50 ([1]; range over 6 of 6 human tumor cell lines (AsPC-1, H460, PC3, T45D, A375, LoVo), read-out: IC50 for inhibition of tumor cell proliferation): 2 to 10 nM | IC50 (bovine tubulin): 2400 nM and 2400 to 3700 nM
Compound: CCOc1cccc(Nc2nn(C)c3c2Cc2cc(OCC)c(OCCCO)cc2-3)c1 [N-(3-ethoxyphenyl)-1,4-dihydro-6-ethoxy-7-(3-hydroxypropoxy)-1-methylindeno[1,2-c]pyrazole-3-amine]
fold less potent compared to paclitaxel ([1]; depending on the cell line examined): approximately 10 fold | binding at the colchicine binding site [3]: binding of this compound at the colchicine binding site was also demonstrated | IC50 ([4]; read-out: IC50 for inhibition of LSGS-stimulated HUVEC growth): < 10 nM | IC50 ([4]; read-out: IC50 versus confluent, non-proliferating HUVEC cells): > 10000 nM | competition with [3H]-colchicine binding [2]: competed with [^3H]-colchicine binding in a manner similar to unlabeled colchicine

Compound: COC(=O)Nc1nc2ccc(C(=O)c3cccs3)cc2[nH]1 [nocodazole]
effect on tubulin polymerization curve (Vmax) (bovine tubulin): significant decrease in the Vmax | IC50 (bovine tubulin): 1500 nM
